# Test results: patent US20140315972A1, “RS)-2-(2-oxo-4-phenylpyrrolidin-1-yl)acetamide compound having modulatory activity with a commensurate effect, pharmaceutical substance (variants) and its application, composition (variants) thereof” (priority 2011, published 2014)
# “And” between values parts separate entries of the source, which are not always exact repeats. Identical values can stand only once. Marks after values point to notes of the source that are not given here.
# How the values were obtained:
# rats [1] = experiment: Forced swimming by Porsolt (behavioral despair), rat pups; assay type: in vivo; details: for Duration of immobilization vs control: listed as Phenotropil
# Procedure: The antidepressant effect of Phenotropil was studied in adult rats (185-218 g) and rat pups of 28-35 days of age (85-110 g). The test drugs were injected intraperitoneally in the first case and intragastrically in the second case 40 min before the tests. The methods of behavioral despair during forced swimming (Porsolt et al., 1978) and forced swimming with freely rotating wheels (Nomura et al., 1982) were used.
# rats [2] = experiment: 14-day immobilization in antiorthostatic position (Ds), thymus, spleen, adrenal mass ratios Kt; assay type: in vivo; details: Ds-conditions; for S/A: spleen/adrenals ratio (mg/100 g baseline body weight); for S/T: spleen/thymus ratio (mg/100 g baseline body weight); for T/A: thymus/adrenals ratio (mg/100 g baseline body weight)
# [3] = system: glutamate NMDA receptors (hippocampus); experiment: Receptor binding ex vivo on rat brain membrane preparations
# Procedure: (§1) Studying the mechanisms of action of the preventive and curative effect of Phenotropil (100 mg/kg) with single and subchronic administration (for 7 days) in terms of receptor binding to dopamine (D1, D2, D3 in the striatum), serotonin (5-HT2—frontal cortex) glutamate (NMDA in the hippocampus), the GABAA benzodiazepine (BDZ—cortex) and acetylcholine (nACh—cortex) receptors was performed on membrane preparations isolated from various competent rat brain structures. The methods are well known and described. Baseline studies in normal state and during the anticholinergic scopolamine induced CRPA amnesia served as the comparison groups (Table 7.4 and 7.5).
# [4] = system: GABAA benzodiazepine (BDZ) receptors (cortex); experiment: as above; details: 100 mg/kg single dose during scopolamine amnesia
# Procedure: as §1
# [5] = system: acetylcholine nACh receptors (cortex); experiment: as above
# Procedure: as §1
# [6] = system: serotonin 5-HT2 receptors (frontal cortex); experiment: as above
# Procedure: as §1
# influenza = experiment: Respiratory viral infection (influenza) of mice during life duration study; assay type: in vivo; details: influenza outbreak
# rats [7] = experiment: Locomotor activity in Opto-varimex, HEF and LEF rats; assay type: in vivo
# Description: (RS)-2-(2-oxo-4-phenylpyrrolidin-1-yl)acetamide has a psychomodulatory activity with the commensurate effect on motor activity of rats.
# Stability during storage = assay type: physicochemical; details: sterile 0.001-3% solutions with cyclodextrin or Tween, ampoules
# Procedure: The resulting compositions are stable. The studies were conducted in accordance with regulatory requirements for determination when stored in natural conditions (in a dry, dark place at a temperature not exceeding 30° C.) and using the standard method of accelerated aging.
# The crystalline powder of the Phenotropil substances is not volatile, has white, rarely white to slightly yellowish or slightly cream color, bitter taste (bitter taste that disappears in the mouth rather quickly after dissolution, leaving no unpleasant sensations). In the related products, the bitter taste persists. The Compounds are sparingly soluble in water and saline, moderately soluble in 96.0% alcohol and chloroform. Readily soluble in water and saline under heating, but the solutions are not stable during cooling and storage under normal conditions (not more than 2 hours, which is acceptable for the extemporaneous preparations and research), moderately soluble in 5.0% glucose solution, dissolve well in the presence of solubilizers and emulsifiers. Tween80 and cyclodextrins increase solubility in water, especially Tween80, while cyclodextrins have limitations by concentration. […]
# [8] = Body weight in obese rats, 1 month intragastric course; assay type: in vivo; details: for Body weight (%): change vs control (dist. water) = 100
# Procedure: Investigation of the effect of Phenotropil on body weight at course intragastric administration for 1 month was performed at doses of 25, 50, 100, 200 and 300 mg/kg/day in white outbred rats of both sexes with obvious signs of obesity (380-430 g) without changes in diet and behavior. Each animal was placed in a standard single cell. The body weight, the amount of water and food consumed per day were recorded.
# [9] = 100 mg/kg after scopolamine-induced CRPA amnesia
# [10] = NMDA hippocampus, 100 mg/kg single dose during scopolamine amnesia
# [11] = nACh cortex, 100 mg/kg single dose during scopolamine amnesia
# [12] = 5-HT2 frontal cortex, 100 mg/kg single dose during scopolamine amnesia
smiles,measurement,setting,value
"NC(=O)CN1CC(c2ccccc2)CC1=O (racemic) [Compound 1, (RS)-2-(2-oxo-4-phenylpyrrolidine-1-yl)acetamide]",Duration of immobilization,rats [1]; intragastric 100 mg/kg,86.35 ± 51.97 s
same,Duration of immobilization vs control,rats [1]; intragastric 100 mg/kg,−79.8% and −79.77 * %
same,Duration of immobilization,rats [1]; intragastric 200 mg/kg,118.72 ± 80.04 s
same,Duration of immobilization vs control,rats [1]; intragastric 200 mg/kg,−72.2% and −72.19 * %
same,S/A,rats [2]; 25 mg/kg,7.6 ± 1.2
same,S/T,rats [2]; 25 mg/kg,2.2 ± 0.1
same,T/A,rats [2]; 25 mg/kg,5.5 ± 1.1
same,S/A,rats [2]; 50 mg/kg,8.2 ± 1.2
same,S/T,rats [2]; 50 mg/kg,1.6 ± 0.1
same,T/A,rats [2]; 50 mg/kg,6.6 ± 1.1
same,S/A,rats [2]; 100 mg/kg,8.8 ± 1.2
same,S/T,rats [2]; 100 mg/kg,1.2 ± 0.2
same,T/A,rats [2]; 100 mg/kg,5.5 ± 1.1
same,decrease in density of NMDA receptors vs scopolamine amnesia,[3]; [9],12%
same,Bmax change vs saline CRPA control,[3]; [10],+69%
same,Bmax change vs scopolamine amnesia group,[3]; [10],−12%
same,Kd change vs saline CRPA control,[3]; [10],+18.4%
same,Kd change vs scopolamine amnesia group,[3]; [10],+9.0%
same,Bmax change vs saline CRPA control,[4],+4%
same,Kd change vs saline CRPA control,[4],−3.8%
same,Kd change vs scopolamine amnesia group,[4],+9.3%
same,decrease in density of nACh receptors vs scopolamine amnesia,[5]; [9],46%
same,Bmax change vs saline CRPA control,[5]; [11],+6%
same,Bmax change vs scopolamine amnesia group,[5]; [11],−46%
same,Kd change vs saline CRPA control,[5]; [11],+39.5%
same,Kd change vs scopolamine amnesia group,[5]; [11],+14.4%
same,"Bmax, percentage relative to control","[6]; 5-HT2, subchronic 100 mg/kg/day, no pathology",−18%*
same,Bmax change vs saline CRPA control,[6]; [12],+31%
same,Kd change vs saline CRPA control,[6]; [12],+19.4%
same,Kd change vs scopolamine amnesia group,[6]; [12],+3.0%
same,decrease of density (Bmax) of 5-HT2 receptors vs control,"[6]; subchronic 100 mg/kg, no pathology",18%
same,surviving mice that did not get sick,influenza,46%
same,surviving mice that had been ill but survived,influenza,54%
same,"mice died, total in treated groups",influenza; all control animals died,15%
same,locomotor activity vs control,"rats [7]; HEF rats, 5 mg/kg i.g., 0-5 min",−0.06%
same,locomotor activity vs control,"rats [7]; HEF rats, 5 mg/kg i.g., 5-10 min",+7.36% *
same,locomotor activity vs control,"rats [7]; HEF rats, 5 mg/kg i.g., 10-15 min",−7.36%
same,locomotor activity vs control,"rats [7]; HEF rats, 5 mg/kg i.g., 15-20 min",−96.53% *
same,locomotor activity vs control,"rats [7]; HEF rats, 5 mg/kg i.g., 20-25 min",−103.15% *
same,locomotor activity vs control,"rats [7]; HEF rats, 5 mg/kg i.g., 25-30 min",+207.1% *
same,locomotor activity vs control,"rats [7]; HEF rats, 10 mg/kg i.g., 0-5 min",−4.2%
same,locomotor activity vs control,"rats [7]; HEF rats, 10 mg/kg i.g., 5-10 min",−8.4%
same,locomotor activity vs control,"rats [7]; HEF rats, 10 mg/kg i.g., 10-15 min",−3.73%
same,locomotor activity vs control,"rats [7]; HEF rats, 10 mg/kg i.g., 15-20 min",+7.44%
same,locomotor activity vs control,"rats [7]; HEF rats, 10 mg/kg i.g., 20-25 min",−4.72%
same,locomotor activity vs control,"rats [7]; HEF rats, 10 mg/kg i.g., 25-30 min",0%
same,locomotor activity vs control,"rats [7]; HEF rats, 10 mg/kg i.g., accumulated, listed as Phenotropil, 10 mg/kg",−4.23%
same,locomotor activity vs control,"rats [7]; LEF rats, 5 mg/kg i.g., 0-5 min",+15.0% *
same,locomotor activity vs control,"rats [7]; LEF rats, 5 mg/kg i.g., 5-10 min",+6.18%
same,locomotor activity vs control,"rats [7]; LEF rats, 5 mg/kg i.g., 10-15 min",+9.74%
same,locomotor activity vs control,"rats [7]; LEF rats, 5 mg/kg i.g., 15-20 min",+29.1% *
same,locomotor activity vs control,"rats [7]; LEF rats, 5 mg/kg i.g., 20-25 min",+2.1%
same,locomotor activity vs control,"rats [7]; LEF rats, 5 mg/kg i.g., 25-30 min",+10.0% *
same,locomotor activity vs control,"rats [7]; LEF rats, 10 mg/kg i.g., 0-5 min",+4.31%
same,locomotor activity vs control,"rats [7]; LEF rats, 10 mg/kg i.g., 5-10 min",+11.31% *
same,locomotor activity vs control,"rats [7]; LEF rats, 10 mg/kg i.g., 10-15 min",+27.85%
same,locomotor activity vs control,"rats [7]; LEF rats, 10 mg/kg i.g., 15-20 min",+7.23 * %
same,locomotor activity vs control,"rats [7]; LEF rats, 10 mg/kg i.g., 20-25 min",+14.39% *
same,locomotor activity vs control,"rats [7]; LEF rats, 10 mg/kg i.g., 25-30 min",+3.75%
same,locomotor activity vs control,"rats [7]; population (normal) rats, 5 mg/kg i.g., 0-5 min",+18.06% *
same,locomotor activity vs control,"rats [7]; population (normal) rats, 5 mg/kg i.g., 5-10 min",−5.95%
same,locomotor activity vs control,"rats [7]; population (normal) rats, 5 mg/kg i.g., 10-15 min",−13.03% *
same,locomotor activity vs control,"rats [7]; population (normal) rats, 5 mg/kg i.g., 15-20 min",−22.55% *
same,locomotor activity vs control,"rats [7]; population (normal) rats, 5 mg/kg i.g., 20-25 min",+50.76% *
same,locomotor activity vs control,"rats [7]; population (normal) rats, 5 mg/kg i.g., 25-30 min",+50.97% *
same,locomotor activity vs control,"rats [7]; population (normal) rats, 5 mg/kg i.g., accumulated",+4.28% *
same,locomotor activity vs control,"rats [7]; population (normal) rats, 10 mg/kg i.g., 0-5 min",+38.8% *
same,locomotor activity vs control,"rats [7]; population (normal) rats, 10 mg/kg i.g., 5-10 min",−5.78%
same,locomotor activity vs control,"rats [7]; population (normal) rats, 10 mg/kg i.g., 10-15 min",+5.56%
same,locomotor activity vs control,"rats [7]; population (normal) rats, 10 mg/kg i.g., 15-20 min",+42.91 * %
same,locomotor activity vs control,"rats [7]; population (normal) rats, 10 mg/kg i.g., 20-25 min",+95.6% *
same,locomotor activity vs control,"rats [7]; population (normal) rats, 10 mg/kg i.g., 25-30 min",−91.47% *
same,locomotor activity vs control,"rats [7]; population (normal) rats, 10 mg/kg i.g., accumulated",+18.0% *
same,storage stability of sterile solutions,Stability during storage,at least 12 months
same,Body weight (%),[8]; 25 mg/kg,−14.0%
same,reduction of body weight relative to control,[8]; 25 mg/kg/day i.g. 1 month,14%
same,Body weight (%),[8]; 50 mg/kg,−25.0 * %
same,reduction of body weight relative to control,[8]; 50 mg/kg/day i.g. 1 month,25%
same,Body weight (%),[8]; 100 mg/kg,−33.3 * %
same,reduction of body weight relative to control,[8]; 100 mg/kg/day i.g. 1 month,33.3%
same,Body weight (%),[8]; 200 mg/kg,−35.0 * %
same,reduction of body weight relative to control,[8]; 200 mg/kg/day i.g. 1 month,35%
same,Body weight (%),[8]; 300 mg/kg,−32.0 * %
same,reduction of body weight relative to control,[8]; 300 mg/kg/day i.g. 1 month,32%
